Measured values: patent US20130115256A1, “METHODS FOR TREATING OR PREVENTING VASCULAR GRAFT FAILURE” (priority 2010, published 2013)

Assays:
[1] = system: human saphenous vein (HSV); test: Human saphenous vein organ culture model of intimal hyperplasia
Experimental: Dc-identified, discarded segments of human saphenous vein (HSV) were collected from consented patients undergoing coronary artery or peripheral vascular bypass surgeries. HSV segments were stored in a saline solution until the end of the surgical procedure, at which time they were placed in cold transplant harvest buffer (100 mM potassium lactobionate, 25 mM KH2PO4, 5 mM MgSO4, 30 mM Raffinose, 5 mM Adenosine, 3 mM Glutathione, 1 mM Allopurinol, 50 g/L Hydroxyethyl starch, pH 7.4). The vessels were used within 24 hours of harvest. Using sterile technique, HSV segments were transferred to a 60-mm Petri dish under a sterile hood. The edges (0.5 mm) of each segment were removed with a blade and excess adventitial tissue and fat removed with minimal manipulation. […]
After viability was determined in the muscle bath, additional rings were cut and placed in 8-well chamber slides and maintained in RPMI 1640 medium supplemented with 30% FBS, 1% L-glutamine and 1% penicillin/streptomycin for 14 days at 37° C. in an atmosphere of 5% CO2 in air. […]
After 14 days of organ culture, vein segments were fixed in 0.5 mL of 10% formalin at 37° C. for 30 minutes and embedded in paraffin for sectioning. […] Intimal and medial thickening was measured for each section at 5× magnification with the microscope's computerized image analysis system. […]

PRAK = target: T1, PRAK (Homo sapiens, UniProt Q8IW41); test: PRAK radiometric kinase assay; format: biochemical; conditions: MMI-0100 100 μM; remaining kinase activity
T1 construct: purchased Millipore (KinaseProfiler service)
T1 sequence (Q8IW41 1-473): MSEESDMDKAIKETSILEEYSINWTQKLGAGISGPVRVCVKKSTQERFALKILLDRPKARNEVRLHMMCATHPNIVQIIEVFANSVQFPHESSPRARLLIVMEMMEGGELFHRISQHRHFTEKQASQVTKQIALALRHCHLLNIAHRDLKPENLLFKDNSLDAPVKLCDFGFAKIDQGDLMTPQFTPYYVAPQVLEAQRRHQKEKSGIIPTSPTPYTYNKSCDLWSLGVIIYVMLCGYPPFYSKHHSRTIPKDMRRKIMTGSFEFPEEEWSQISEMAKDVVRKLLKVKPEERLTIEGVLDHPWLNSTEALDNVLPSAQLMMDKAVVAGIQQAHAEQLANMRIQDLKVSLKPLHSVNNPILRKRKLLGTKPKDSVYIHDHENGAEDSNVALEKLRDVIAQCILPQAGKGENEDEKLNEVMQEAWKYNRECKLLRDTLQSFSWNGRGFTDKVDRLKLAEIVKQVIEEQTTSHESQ
Excerpt: A commercial radiometric assay service was used to test the specificity and potency of MMI-0100 ([…]; SEQ ID NO: 1) by measuring its half maximal inhibitory concentrations (IC50). This quantitative assay measures how much MK2 inhibitor (MMI-0100; […] (SEQ ID NO: 1)) is needed to inhibit 50% of a given biological process or component of a process (i.e., an enzyme, cell, or cell receptor). Specifically, in these assays, a positively charged substrate is phosphorylated with a radiolabeled phosphate group from an ATP if the kinase is not inhibited by an inhibitor peptide. The positively charged substrate then is attracted to a negatively charged filter membrane, quantified with a scintillation counter, and compared to a 100% activity control. ATP concentrations within 15 μM of the apparent Km for ATP were chosen since an ATP concentration near the Km may allow for the kinases to have the same relative amount of phosphorylation activity. The individual conditions for each radiometric assay are as follows. […]
IC50 values for inhibitor peptides were determined using Millipore's IC50 Profiler Express service. […]

**Q.** Which mean intimal thickness ([1]; 10 μM MMI-0100, 14 days culture, 30% FBS) does the source give for YARAAARQARAKALARQLGVAA [MMI-0100] here?
**A.** 14 μm

**Q.** And the “intima:media (I:M) ratio” value ([1]; 100 μM MMI-0100, 14 days, 30% serum)?
**A.** greater reduction

**Q.** And the “Percent Activity, PRAK” value (PRAK)?
**A.** 100%
